Source: US9822170B2, “Co-use of a clusterin inhibitor with an EGFR inhibitor to treat cancer” (ALETHIA BIOTHERAPEUTICS INC., priority 2012, dated 2017)

Columns and labels:
H460 cells = experiment: CellTiter-Glo Luminescent Cell Viability Assay; format: cell-based, human; details: sCLU 0.25 μg/ml or TGFβ 2 nM for 48 h, then erlotinib 20 μM for 96 h
Description: (§1) Following this induction, the cells were treated with erlotinib (20 μM) for 96 h and the number of cells was determined using the CellTiter-Glo® Luminescent Cell Viability Assay (Promega, Madison, Wis.). As a control, additional cells were not induced with sCLU or TGFβ. […] We also compared the response to erlotinib in cells that were induced to undergo an EMT with either sCLU or TGFβ.

H1299 cells = experiment: CellTiter-Glo Luminescent Cell Viability Assay; format: cell-based, human
Description: as §1

cancer cells = details: incubated with cancer cells; WO2007/030930, WO2011/063523; cited from earlier work

Row | Molecule | responsiveness to erlotinib after stimulation of EMT (H460 cells) | responsiveness to erlotinib after stimulation of EMT (H1299 cells; H1299 cells, sCLU 0.25 μg/ml or TGFβ 2 nM for 48 h, then erlotinib 20 μM for 96 h) | sensitivity of the cells to erlotinib (H1299 cells; H1299 compared with H460 cells, erlotinib 20 μM for 96 h) | blocking of EMT (maintenance of membrane E-cadherin expression) (cancer cells)
1 | C#Cc1cccc(Nc2ncnc3cc(OCCOC)c(OCCOC)cc23)c1 [erlotinib] | did not change the responsiveness | did not change the responsiveness | H1299 cells were more sensitive to erlotinib than the H460 cells | 
2 | 16B5: murine anti-clusterin (sCLU) antibody that blocks EMT; VL SEQ ID NO.:25, VH SEQ ID NO.:29 (antibody, V domains shown, murine 16B5 heavy chain variable region; murine 16B5 light chain variable region) VH: EVQLQQSGAELVKPGASVRLSCTTSGFNIKDIYMHWVKQRPEQGLEWIGRIDPAYGNTKYDPKFQGKATITADTSSNTAYLQLSSLTSEDTAVYYCARRYDTAMDYWGQGTSVTVSS VL: DIVMSQSPSSLAVSAGEKVTMSCKSSQSLLNSRTRKNYLAWYQQKPGQSPKLLIYWASTRESGVPDRFTGSGSGTDFTLTISSVQAEDLAVYYCKQSYNLWTFGGGTKLEFK |  |  |  | could block EMT
